ChEMBL document CHEMBL3507680, “University of Dundee, Gates Library screen for HepG2 cell viability”

Test: Human HepG2 cell viability assay in 384 well format
Format: toxicity, cell-based
Set-up: dose 125 nL, time 70.5 hour; cytotoxicity at 70.5 h: concentration not given beside the values
Settings: HepG2 cells, read-out: Inhibition

Structure (SMILES) | cytotoxicity at 70.5 h
N#Cc1cccc(N2CC3(CCN(C(=O)c4ccncc4)C3)CC2=O)c1 (configuration not stated) | -5.96%
Cn1cc(C(C)(O)CNc2ccccn2)cn1 (configuration not stated) | 2.38%
Cc1cccnc1N1CCC(c2nccn2Cc2cscn2)CC1 | -0.624%
COc1cccc(Cn2cccc(C#N)c2=O)c1 | -7%
O=C(Nc1ccccn1)N(CCO)Cc1ccccc1Br | -2.33%
CC(C)c1nc(CSc2nnc(-c3cccs3)n2CC(N)=O)no1 | -9.43%
OC(CNCCn1cccn1)COc1ccc(Br)cc1 (configuration not stated) | -5.72%
O=C1CN(C(=O)C2CCCCC2)CC(O)CN1Cc1ccco1 (configuration not stated) | -4.93%
c1ccc2c3c([nH]c2c1)C(c1nn[nH]n1)CCC3 (configuration not stated) | -10.7%
Cc1ccc(C(=O)N2CC[C@H]3[C@H]2CCN3CC2CCOCC2)cc1F | 3.15%
O=S(=O)(CCCn1cncn1)Cc1ccccc1Cl | -6.92%
CC1CN(C(=O)c2nccnc2N)c2ccc(F)cc2O1 (configuration not stated) | 1.2%
COCCN(CCc1ccccc1)Cc1nc2c(cnn2C)c(=O)[nH]1 | -3.4%
Cc1cncc(C(=O)N2CCOc3nc(C)ccc32)c1 | -7.26%
Cc1ccc(O)c(CN(CCCn2ccnc2)Cc2ccc(C)s2)c1 | 0.701%
CS(=O)(=O)N1CCN(Cc2csc(-c3ncccn3)n2)CC1 | 15.5%
CCOc1nn(CC)cc1-c1nnc(SCc2cccnc2)n1CC | -7.15%
COc1ccc(C)cc1NC(=O)c1c(C)cn(C)c1CC(=O)O | -11%
CO[C@@H](C(=O)NC1CCOCC1)c1ccccc1 | 9.39%

Structure (SMILES) | cytotoxicity at 70.5 h
Cc1cccc2nc(CSCC(=O)Nc3nnc(C(C)C)s3)cc(=O)n12 | -10.6%
COc1c(CNC2CCc3ccccc32)c(C(C)C)nn1C (configuration not stated) | -16.4%
Cc1ccc(-n2nnc(C(=O)NCCS(N)(=O)=O)c2C2CC2)cc1 | -18.3%
Cn1nnc2c1CCN(C(=O)C1CCC1)C2COCCN1CCCC1 (configuration not stated) | -2.83%
Cc1cc(=O)[nH]c(SCC(=O)N(C)CC2Cc3ccccc3CN2C)n1 (configuration not stated) | -6.08%
COc1ccc(CC(=O)N2CC[C@@H]3NC(=O)CC[C@@H]32)cc1 | 3.62%
CCCc1noc(CN2CCN(CCC(C)C)CC2)n1 | -2.49%
CN(C)CCCN1CC2(CCN(C(=O)C3(C)CCCCO3)CC2)OC1=O (configuration not stated) | 17.7%
CN(c1ncc(C(N)=O)cc1Cl)C1CCC(c2ccccc2)CC1 (configuration not stated) | -3.58%
CCn1nc(C)c(CN(Cc2ccccn2)Cc2ccccc2Cl)c1C | 10.9%
O=C(COCC1CCCCO1)N1CCN(Cc2ccccc2F)C(=O)C1 (configuration not stated) | -1.62%
Cn1nc(CN2CCCCC2)c2c1CN(C(=O)c1cccc(Cl)c1)C2 | 40.4%
O=C(COCC(=O)N(c1ccccc1)c1ccccc1)N1CCOCC1 | -5.79%
CCn1c(NCc2ccccc2)nc2c(C)nn(C)c2c1=O | -9.48%
COC(=O)C(NC(=O)c1cc(C)ccc1C)c1cccnc1 (configuration not stated) | -0.114%
Cc1ccc2c(c1)OC(C)CN2C(=O)c1c[nH]c(C)cc1=O (configuration not stated) | 2.52%
CN(Cc1nc(-c2ccccc2)no1)C(=O)CNS(C)(=O)=O | -8.66%
Cc1nonc1OCCNC(=O)COc1ccc(F)cc1F | -12.2%
CCn1cc(CN2CCC(c3[nH]ncc3S(C)(=O)=O)C2)cn1 (configuration not stated) | 0.805%

Structure (SMILES) | cytotoxicity at 70.5 h
CCCS(=O)(=O)N1C[C@@H](Oc2ccccn2)[C@H]2OCCC[C@H]21 | -1.57%
COCCN1CCc2ncnc(N(C)C)c2CC1 | -10.9%
CN1CCc2cc(C(=O)N(C)C)c(NCC3CC3)nc2CC1 | -1.63%
Cn1cc(C(C)(O)CNc2ccc(C(F)(F)F)cn2)cn1 (configuration not stated) | -1.94%
COc1ccc(CN2CCOC[C@H](OCC(=O)N(C)C)C2)cc1 | -1.39%
Cc1cc(CN(C)C(=O)CN2CC3(CCNCC3)OC2=O)n(C)n1 | -9.14%
CN(C)C(=O)CN1C[C@@H]2CC[C@H](C1)N(Cc1ccc3nsnc3c1)C2 | 3.82%
Cc1nc(CN2CCN(c3ccc4nncn4n3)C(C)C2)oc1C (configuration not stated) | -8.63%
c1cncc(OC[C@@H]2CCC[C@@]23CNCCO3)c1 | 14.3%
CC(C)NC1CC2(CCNCC2)c2cc(F)ccc21 (configuration not stated) | -2.34%
O=C(NN1CCCc2ccccc21)c1c[nH]c(=O)[nH]1 | -7.94%
CCc1ccc(NS(=O)(=O)c2cc3c(c(C(=O)O)c2)OCCO3)cc1 | -0.0386%
Cc1ccnc(N2CCCC(c3nncn3C3CC3)C2)n1 (configuration not stated) | -2.88%
Cc1[nH]ccc1C(=O)N1CCOCC12CCCC2 | -0.873%
CC(C)NC(=O)C1CCc2nnc(CNC(=O)c3cccnc3)n21 (configuration not stated) | -2%
CC1CC(=O)c2cnc3nc(N4CCOCC4)[nH]c(=O)c3c2C1 (configuration not stated) | -15.8%
O=C(C1CC(c2ccccc2)=NO1)N1CCCCc2ccccc21 (configuration not stated) | -7.24%
CCc1cnc(C)nc1NC1CC(=O)N(CC2CCCCC2)C1 (configuration not stated) | -8.14%
CN1CCN(CC2CC2)C(=O)c2cnc(N3CCCCC3)nc21 | 30.2%
